Legend:
[1] = Fluorescent staining of HAP chromatographic medium as a model for drusen; format: binding
Excerpt: (§1) Hydroxyapatite Bio-Gel HTP resin (Bio-Rad catalog 130-0420) (Bio-Red Laboratories, Inc., Hercules, Calif.) was used as a model for hydroxyapatite in deposits for purposes of collecting emission spectra; stained resin particles were suspended in propylene glycol for fluorescence spectroscopy. Calcium phosphate tribasic (34-40% Ca basis, cat no. C5267), Calcium hydrogen phosphate dihydrate (dibasic, 98%, cat. No. 307653) and calcium phosphate monobasic monohydrate (>85%, cat no. 21053) were all products of Sigma Aldrich and used without further purification. Fluorescence spectra were obtained on a Spectronics AB-2 spectrophotofluorometer with a high pressure xenon lamp.
(§2) The dibasic form of calcium phosphate is listed as 98% pure. […] IRDye 680RD BoneTag was also tested on HAP and drusen. This probe is a long wavelength excitable fluorophore coupled to tetracycline designed as an in vivo bone stain (J. L. Kovar et al., 2011 Anal. Biochem. 416(2):167-173).

[2] = Staining of tribasic calcium phosphate; format: binding; conditions: compared with HAP
Excerpt: as §1, §2

[3] = Staining of dibasic calcium phosphate (Example 1); format: binding; conditions: compared with HAP
Excerpt: as §1, §2

[4] = Staining of monobasic calcium phosphate; format: binding; conditions: salt slightly soluble
Excerpt: as §1, §2

[5] = Staining of insoluble zinc phosphate (Example 1); format: binding
[6] = Fluorescent staining of cadaver posterior retinas (sub-RPE deposits, drusen); design: species or system human; conditions: for increase in apparent intensity over the fluorescent background of the sub-RPE alone: cadaver posterior retinas
[7] = Staining of the elastin layer of the Bruch's membrane in cadaver retina; design: species or system human
[8] = Fluorescent staining of authentic hydroxyapatite, emission spectra (Example 2, FIG. 6); format: binding; conditions: for fluorescence of stained hydroxyapatite: 100 mg salt in 25 mM MOPS pH 7.5, 20 minutes at room temperature, suspended in propylene glycol; for specificity for HAP in comparison to dibasic calcium phosphate or zinc phosphate: FIG. 6
Procedure: (§3) Briefly, the insoluble salts (100 mg in 1 ml 25 mM MOPS pH 7.5 buffer) were stained with 100 ul of 1 mg/ml dye (0.02 nmol/uL of the Bone Tag 680 RD dye) in buffer for 20 minutes at room temperature, followed by two rinses with buffer. Approximately 100 ul of the precipitate (a slurry) was suspended in propylene glycol. Fluorescence emission spectra shown in FIG. 6 were obtained at the excitation wavelengths described in the legend. […] Sub-RPE deposits can be readily identified based on their characteristic faint autofluorescence at excitation: 488 nm and emission: 525 nm).

[9] = Fluorescent staining of dibasic calcium phosphate, emission spectra (Example 2, FIG. 6); format: binding; conditions: 25 mM MOPS pH 7.5
Procedure: as §3

[10] = Fluorescent staining of zinc phosphate, specificity control (Example 2, FIG. 6); format: binding; conditions: 25 mM MOPS pH 7.5
Procedure: as §3

[11] = Staining of HAP spherules in sub-RPE deposits in flat mounts of cadaver tissues (FIG. 7); design: species or system human; conditions: for staining of HAP spherules in sub-RPE deposits: flat mounts of cadaver tissues; for staining pattern in retinal tissue: human cadaveric eyes, FIG. 7
Procedure: The protocol of the study adhered to the tenets of the Declaration for Helsinki regarding research involving human tissue.
as §3

[12] = Nile Red staining of neutral lipids in unfixed whole mounts with drusen on Bruch's membrane (FIG. 8); design: species or system human
Procedure: Flat mounts were stained with 1 mg/ml Alizarin Red S (Sigma-Aldrich; Ex: 532 nm Em:620 nm), 20 μM Bone-Tag 680RD (Li-Cor; Ex: 620 nm Em:680 nm), 1 mg/ml tetracycline (Sigma-Aldrich; Ex: 405 nm Em: 570 nm), and 1 mg/ml Xylenol Orange (Sigma-Aldrich; Ex: 532 nm Em:570 nm) in aqueous buffer for 20 minutes at room temperature. Nile Red (Invitrogen, Carsbad, Calif.; Ex: 532 nm Em: 620 nm) was first dissolved in acetone and then diluted in aqueous buffer to 3.5 mg/ml and tissues were incubated for 20 minutes at room temperature.
Without being bound by theory or mechanism, HAP may form on the surface of an existing structure at the RPE/BM interface, for example lipid droplets or lipoproteins. […] The composition of the inner core of HAP spherules was analyzed by mass spectrometric imaging (FIG. 3). […] The native chemical composition was then analysed with time-of-flight secondary ion mass spectrometry (TOF-SIMS), which is well suited, as it combines high lateral resolution (˜250 nm) and very high sensitivity in the range of parts per million, and can image molecular ions and organic molecules over a wide mass range. […] The m/e 184 ion (i.e. from the phosphocholine headgroup fragment from phospholipids) is readily detected by TOF-SIMS as a characteristic marker, so its absence from the spherules implies a strong predominance of cholesterol and/or cholesteryl esters within the spherules.

| Structure (SMILES) | change in fluorescence quantum yield upon binding HAP [1] | fluorescent staining of HAP (fluorescence emission when bound) ([1]; HAP chromatographic medium, stained, rinsed in distilled water, suspended in propylene glycol) | staining of tribasic calcium phosphate [2] | staining of dibasic calcium phosphate [3] | staining of monobasic calcium phosphate [4] | adherence of stain to insoluble zinc phosphate [5] | contrast compared with tetracycline ([6]; cadaver posterior retina, excitation 550-600 nm, emission 650 nm) | increase in apparent intensity over the fluorescent background of the sub-RPE alone [6] | staining of the elastin layer of the Bruch's membrane [7] | fluorescence of stained hydroxyapatite [8] | specificity for HAP in comparison to dibasic calcium phosphate or zinc phosphate [8] | staining of dibasic calcium phosphate [9] | staining of zinc phosphate [10] | staining of HAP spherules in sub-RPE deposits [11] | staining pattern in retinal tissue [11] | labelling of lipid inclusions in drusen [12] |
| --- | --- | --- | --- | --- | --- | --- | --- | --- | --- | --- | --- | --- | --- | --- | --- | --- |
| O=C1c2ccccc2C(=O)c2c1cc(S(=O)(=O)O)c(O)c2O [Alizarin Red S, 9,10-dihydro-3,4-dihydroxy-9,10-dioxo-2-anthracenesulfonic acid] | substantial increase | bright fluorescence emission when bound to the HAP that did not rinse off despite repeated washes with buffer | less well than HAP | less well than HAP | no staining was evident | did not appear that either stain was adhered | two-fold | fifteen-fold | No staining | only significant fluorescence from stained specimens is observed with hydroxyapatite | specific for HAP | did not stain significantly | did not stain significantly | effectively stained spherules | very similar staining patterns | – |
| CCN(CC)c1ccc2nc3c4ccccc4c(=O)cc-3oc2c1 [Nile Red] | – | – | – | – | – | – | – | – | – | – | – | – | – | – | – | labelled a large number of spherical inclusions |
| CN(C)[C@@H]1C(O)=C(C(N)=O)C(=O)[C@@]2(O)C(O)=C3C(=O)c4c(O)cccc4[C@@](C)(O)[C@H]3C[C@@H]12.Cl [Tetracycline HCl, Tetracycline hydrochloride] | – | – | less well than HAP | less well than HAP | – | – | – | eight-fold | – | – | – | – | – | – | – | – |
| Cc1cc(C2(c3cc(C)c(O)c(CN(CC(=O)O)CC(=O)O)c3)OS(=O)(=O)c3ccccc32)cc(CN(CC(=O)O)CC(=O)O)c1O [Xylenol Orange] | – | – | – | – | – | – | – | – | – | only significant fluorescence from stained specimens is observed with hydroxyapatite | specific for HAP | did not stain significantly | did not stain significantly | effectively stained spherules | very similar staining patterns | – |

Source: patent publication US9801955B2, “Methods and compositions for detecting drusen and predicting age-related macular degeneration” (University of Maryland, Baltimore, priority 2012, dated 2017)
